What was measured:
Format in all cases: cell-based
[1] = tested on: decorin synthesis in human dermal fibroblasts; assay: Dot blot assay for decorin protein in dermal fibroblast conditioned medium; conditions: for Decorin Level: 24 hours, relative to vehicle treated control value of 100
Description: (§1) Primary human foreskin fibroblasts at passage 2 (P2) were seeded into 12-well plates at 10000 cells/cm^2 and maintained for 24 hours in an atmosphere of 5% carbon dioxide and 4% oxygen in Dulbeccos Modified Eagles Medium (DMEM) supplemented with 10% foetal calf serum. After this time the cells were washed with serum free DMEM and then incubated in fresh serum free DMEM for a further 60 hours. The fibroblast monolayers were then washed again with serum free DMEM. Test reagents and vehicle controls were added to the cells in triplicate in a final volume of 0.4 ml/well fresh serum free DMEM and incubated for a further 24 hours. This fibroblast conditioned medium was either analysed immediately or snap frozen in liquid nitrogen and stored at −70° C. for future analysis. The cells were then counted and data from the dot-blot analysis subsequently standardised to cell number.
(§2) Samples of conditioned medium from dermal fibroblasts treated with vehicle (as a control) or test reagents were supplemented with 20 mM dithiothreitol (1:10 dilution of 200 mM stock solution) and 0.1% sodium dodecylsulphate (1:100 dilution of 10% stock solution), mixed well and then incubated at 75° C. for 2 minutes. A standard for the assay was generated by serial dilution of neat fibroblast conditioned medium from fibroblasts seeded at 10000 cells/cm^2 in a 175 cm^2 flask and maintained in serum free DMEM as described above. […]
(§3) Following this the Immobilon strips were again washed with TBS/Tween 20 (3×5 minutes) before being allowed to dry in air at room temperature. […] Dot intensity was assessed by computer-assisted image analysis using the quantification tools in ImageQuant™, standardised to cell number and the effects of various test reagents on decorin and procollagen-I synthesis were determined relative to a vehicle treated control value of 100 arbitrary units.
(§4) In order to normalise the results the effects of the test substance was determined relative to a vehicle treated control value of 100 arbitrary units.

[2] = tested on: procollagen-I synthesis in human dermal fibroblasts; assay: Dot blot assay for procollagen-I protein in dermal fibroblast conditioned medium; conditions: for Procollagen Level: 24 hours, relative to vehicle treated control value of 100
Description: as §1, §2, §3, §4

[3] = tested on: Human foreskin keratinocytes; assay: DNA concentration of keratinocyte extract (Pico Green DNA assay); conditions: 4 days of treatment
Description: (§5) Human foreskin keratinocytes at passage 3 (P3) were seeded into 96 well plates at 4000 cells/well in Dubleccos Modified Eagles Medium (DMEM), 0.03 mM calcium. The cells were grown for 3 days prior to treatment. The treatment vehicle was DMSO. After 4 days of treatment, the cells were harvested and washed three times with 100 μl phosphate buffered saline (PBS). The cells were then extracted in 1% Triton X100, 50 mM Tris pH 8.0, 0.02 mM Leupeptin, 0.02 mM Pepstatin. 60 il/well of extract was then assayed for DNA concentration (ng/well), Pico Green DNA assay, Molecular Probes.

[4] = tested on: Human foreskin keratinocytes; assay: Cornified envelope production in keratinocytes (silver-stained dot blot); conditions: for Cornified Envelope % Control / Cornified Envelope Mean: 4 days of treatment
Description: as §5
The cells were then washed in 200 μl PBS, and then 100 μl of 2% SDS, 20 mM DTT was added to each well. The plates were then sealed with a Titertek plate sealer (ICN) and incubated at 60° C. over night in an air tight damp environment (i.e. a sealed sandwich box lined with damp paper). The extract was then filtered through a PVDF transfer membrane (Bio-rad) under gravity using Dot-Blot apparatus (Bio-rad). The membrane is then washed in distilled water prior to silver staining (Bio-rad Silver Stain kit). The stained dot blot membrane is then analysed using Phoretix array software (Phoretix International).

[5] = human dermal fibroblasts, statement in words

CC/C=C\C/C=C\C/C=C\CCCCCC(=O)O [Hexadecatrienoic acid, hexadecatrienoic acid (C16:3(c7, c10, c13))]
Decorin Level ([1]; 1 μM): 108.7 arbitrary units
Decorin Level ([1]; 10 μM): 115.4 arbitrary units
synthesis of decorin as compared to the control [1, 5]: significantly upregulates
Procollagen Level ([2]; 1 μM): 91.0 arbitrary units
Procollagen Level ([2]; 10 μM): 184.2 arbitrary units
synthesis of procollagen-I as compared to the control [2, 5]: significantly upregulates
DNA Results % Control ([3]; 0.1 μM): 59 % Control
DNA Results Mean ([3]; 0.1 μM): 0.98 ng/well
DNA Results % Control ([3]; 0.5 μM): 89 % Control
DNA Results Mean ([3]; 0.5 μM): 1.48 ng/well
DNA Results % Control ([3]; 1 μM): 76 % Control
DNA Results Mean ([3]; 1 μM): 1.27 ng/well
DNA Results % Control ([3]; 10 μM): 68 % Control
DNA Results Mean ([3]; 10 μM): 1.13 ng/well
Cornified Envelope % Control ([4]; 0.1 μM): 98 % Control
Cornified Envelope Mean ([4]; 0.1 μM): 17617
Cornified Envelope % Control ([4]; 0.5 μM): 133 % Control
Cornified Envelope Mean ([4]; 0.5 μM): 24009
Cornified Envelope % Control ([4]; 1 μM): 200 % Control
Cornified Envelope Mean ([4]; 1 μM): 36017
Cornified Envelope % Control ([4]; 10 μM): 227 % Control
Cornified Envelope Mean ([4]; 10 μM): 40997
cornified envelope production ([4]; 1-10 μM application, statement in words): increased

— patent US20030039672A1, “Cosmetic composition and method of treating skin” (Unilever Home & Personal Care USA, Division of Conopco, Inc., priority 2001, published 2003)
